From article PMC4066754 (2014)

Assays:
[1] = tested on: template 8ttt:primer, no downstream-binding oligonucleotide (DNA, duplex, 3'-amino-2',3'-dideoxynucleoside at primer 3' end) CTGGATTTCCTCAGTTTCGTGCG/CGCACGA; experiment: inhibition of enzyme-free primer extension (MALDI-ToF kinetics); conditions: 400 mM NaCl, 80 mM MgCl2; 200 mM HEPES, pH 8.9, 20°C; competes with 3.6 mM dAMP-OAt; calculated from Kinh
[2] = tested on: template 8ctc:primer, no downstream-binding oligonucleotide (DNA, duplex, 3'-amino-2',3'-dideoxynucleoside at primer 3' end) CTGGATTTCCTCAGCTCCGTGCG/CGCACGG; experiment: as above; conditions: 400 mM NaCl, 80 mM MgCl2; 200 mM HEPES, pH 8.9, 10°C; competes with 3.6 mM dAMP-OAt; calculated from Kinh
[3] = tested on: template 8ctc:primer + downstream-binding oligonucleotide (DNA, duplex, 3'-amino-2',3'-dideoxynucleoside at primer 3' end) CTGGATTTCCTCAGCTCCGTGCG/CGCACGG/GCTGAGGAAATCCA; experiment: as above; conditions: 400 mM NaCl, 80 mM MgCl2; 200 mM HEPES, pH 8.9, 20°C; competes with 3.6 mM dAMP-OAt; calculated from Kinh
[4] = tested on: template 8ata:primer + downstream-binding oligonucleotide (DNA, duplex, 3'-amino-2',3'-dideoxynucleoside at primer 3' end) CTGGATTTCCTCAGATACGTGCG/CGCACGT/TCTGAGGAAATCCA; experiment: as above; conditions: 400 mM NaCl, 80 mM MgCl2; 200 mM HEPES, pH 8.9, 20°C; competes with 3.6 mM dAMP-OAt; calculated from Kinh
[5] = tested on: hairpin 4t (DNA, hairpin, hexaethylene glycol (HEG) loop linker between 4 and 5) TCAGCTG; experiment: 1H NMR titration; conditions: 400 mM NaCl, 80 mM MgCl2, 200 mM phosphate in D2O, pH 8.9, 20°C, 0.5 mM hairpin
[6] = tested on: template 8ttt:primer + downstream-binding oligonucleotide (DNA, duplex, 3'-amino-2',3'-dideoxynucleoside at primer 3' end) CTGGATTTCCTCAGTTTCGTGCG/CGCACGA/ACTGAGGAAATCCA; experiment: inhibition of enzyme-free primer extension (MALDI-ToF kinetics); conditions: 400 mM NaCl, 80 mM MgCl2; 200 mM HEPES, pH 8.9, 20°C; competes with 3.6 mM dAMP-OAt; calculated from Kinh
[7] = tested on: template 8gtg:primer + downstream-binding oligonucleotide (DNA, duplex, 3'-amino-2',3'-dideoxynucleoside at primer 3' end) CTGGATTTCCTCAGGTGCGTGCG/CGCACGC/CCTGAGGAAATCCA; experiment: as above; conditions: 400 mM NaCl, 80 mM MgCl2; 200 mM HEPES, pH 8.9, 20°C; competes with 3.6 mM dAMP-OAt; calculated from Kinh
[8] = tested on: template 8tgt:primer + downstream-binding oligonucleotide (DNA, duplex, 3'-amino-2',3'-dideoxynucleoside at primer 3' end) CTGGATTTCCTCAGTGTCGTGCG/CGCACGA/ACTGAGGAAATCCA; experiment: as above; conditions: 400 mM NaCl, 80 mM MgCl2; 200 mM HEPES, pH 8.9, 20°C; competes with 3.6 mM dCMP-OAt; calculated from Kinh
[9] = tested on: template 8cgc:primer + downstream-binding oligonucleotide (DNA, duplex, 3'-amino-2',3'-dideoxynucleoside at primer 3' end) CTGGATTTCCTCAGCGCCGTGCG/CGCACGG/GCTGAGGAAATCCA; experiment: as above; conditions: 400 mM NaCl, 80 mM MgCl2; 200 mM HEPES, pH 8.9, 20°C; competes with 3.6 mM dCMP-OAt; calculated from Kinh
[10] = tested on: template 8ggg:primer + downstream-binding oligonucleotide (DNA, duplex, 3'-amino-2',3'-dideoxynucleoside at primer 3' end) CTGGATTTCCTCAGGGGCGTGCG/CGCACGC/CCTGAGGAAATCCA; experiment: as above; conditions: 400 mM NaCl, 80 mM MgCl2; 200 mM HEPES, pH 8.9, 20°C; competes with 3.6 mM dCMP-OAt; calculated from Kinh
[11] = tested on: template 8aga:primer + downstream-binding oligonucleotide (DNA, duplex, 3'-amino-2',3'-dideoxynucleoside at primer 3' end) CTGGATTTCCTCAGAGACGTGCG/CGCACGT/TCTGAGGAAATCCA; experiment: as above; conditions: 400 mM NaCl, 80 mM MgCl2; 200 mM HEPES, pH 8.9, 20°C; competes with 3.6 mM dCMP-OAt; calculated from Kinh
[12] = tested on: template 8tgt:primer, no downstream-binding oligonucleotide (DNA, duplex, 3'-amino-2',3'-dideoxynucleoside at primer 3' end) CTGGATTTCCTCAGTGTCGTGCG/CGCACGA; experiment: as above; conditions: 400 mM NaCl, 80 mM MgCl2; 200 mM HEPES, pH 8.9, 20°C; competes with 3.6 mM dCMP-OAt; calculated from Kinh
[13] = tested on: hairpin 2g (DNA, hairpin, hexaethylene glycol (HEG) loop linker between 4 and 5) GTGCGCA; experiment: 1H NMR titration; conditions: 400 mM NaCl, 80 mM MgCl2; 200 mM phosphate in D2O, pH 8.9, 20°C, 0.5 mM hairpin
[14] = tested on: template 8cgc:primer, no downstream-binding oligonucleotide (DNA, duplex, 3'-amino-2',3'-dideoxynucleoside at primer 3' end) CTGGATTTCCTCAGCGCCGTGCG/CGCACGG; experiment: inhibition of enzyme-free primer extension (MALDI-ToF kinetics); conditions: 400 mM NaCl, 80 mM MgCl2; 200 mM HEPES, pH 8.9, 10°C; competes with 3.6 mM dCMP-OAt; calculated from Kinh
[15] = tested on: template 8ccc:primer, no downstream-binding oligonucleotide (DNA, duplex, 3'-amino-2',3'-dideoxynucleoside at primer 3' end) CTGGATTTCCTCAGCCCCGTGCG/CGCACGG; experiment: as above; conditions: 400 mM NaCl, 80 mM MgCl2; 200 mM HEPES, pH 8.9, 10°C; competes with 3.6 mM dGMP-OAt; calculated from Kinh
[16] = tested on: template 8tct:primer + downstream-binding oligonucleotide (DNA, duplex, 3'-amino-2',3'-dideoxynucleoside at primer 3' end) CTGGATTTCCTCAGTCTCGTGCG/CGCACGA/ACTGAGGAAATCCA; experiment: as above; conditions: 400 mM NaCl, 80 mM MgCl2; 200 mM HEPES, pH 8.9, 20°C; competes with 3.6 mM dGMP-OAt; calculated from Kinh
[17] = tested on: template 8gcg:primer + downstream-binding oligonucleotide (DNA, duplex, 3'-amino-2',3'-dideoxynucleoside at primer 3' end) CTGGATTTCCTCAGGCGCGTGCG/CGCACGC/CCTGAGGAAATCCA; experiment: as above; conditions: 400 mM NaCl, 80 mM MgCl2; 200 mM HEPES, pH 8.9, 20°C; competes with 3.6 mM dGMP-OAt; calculated from Kinh
[18] = tested on: template 8ccc:primer + downstream-binding oligonucleotide (DNA, duplex, 3'-amino-2',3'-dideoxynucleoside at primer 3' end) CTGGATTTCCTCAGCCCCGTGCG/CGCACGG/GCTGAGGAAATCCA; experiment: as above; conditions: 400 mM NaCl, 80 mM MgCl2; 200 mM HEPES, pH 8.9, 20°C; competes with 3.6 mM dGMP-OAt; calculated from Kinh
[19] = tested on: hairpin 3c (DNA, hairpin, hexaethylene glycol (HEG) loop linker between 6 and 7) CTCTGCGCA; experiment: 1H NMR titration; conditions: 400 mM NaCl, 80 mM MgCl2; 200 mM phosphate in D2O, pH 8.9, 20°C, 0.5 mM hairpin
[20] = tested on: hairpin 2c (DNA, hairpin, hexaethylene glycol (HEG) loop linker between 4 and 5) CTGCGCA; experiment: 1H NMR titration; conditions: 400 mM NaCl, 80 mM MgCl2; 200 mM phosphate in D2O, pH 8.9, 20°C, 0.5 mM hairpin
[21] = tested on: template 8tct:primer, no downstream-binding oligonucleotide (DNA, duplex, 3'-amino-2',3'-dideoxynucleoside at primer 3' end) CTGGATTTCCTCAGTCTCGTGCG/CGCACGA; experiment: inhibition of enzyme-free primer extension (MALDI-ToF kinetics); conditions: 400 mM NaCl, 80 mM MgCl2; 200 mM HEPES, pH 8.9, 20°C; competes with 3.6 mM dGMP-OAt; calculated from Kinh
[22] = tested on: template 8aca:primer + downstream-binding oligonucleotide (DNA, duplex, 3'-amino-2',3'-dideoxynucleoside at primer 3' end) CTGGATTTCCTCAGACACGTGCG/CGCACGT/TCTGAGGAAATCCA; experiment: as above; conditions: 400 mM NaCl, 80 mM MgCl2; 200 mM HEPES, pH 8.9, 20°C; competes with 3.6 mM dGMP-OAt; calculated from Kinh
[23] = tested on: RNA hairpin 6c (RNA, hairpin, hexaethylene glycol (HEG) loop linker between 4 and 5) CCAGCUG; experiment: 1H NMR titration; conditions: 400 mM NaCl, 80 mM MgCl2; 200 mM phosphate in D2O, pH 7, 20°C, 2 mM hairpin
[24] = tested on: template 8cac:primer + downstream-binding oligonucleotide (DNA, duplex, 3'-amino-2',3'-dideoxynucleoside at primer 3' end) CTGGATTTCCTCAGCACCGTGCG/CGCACGG/GCTGAGGAAATCCA; experiment: inhibition of enzyme-free primer extension (MALDI-ToF kinetics); conditions: 400 mM NaCl, 80 mM MgCl2; 200 mM HEPES, pH 8.9, 20°C; competes with 7.2 mM TMP-OAt; calculated from Kinh
[25] = tested on: template 8tat:primer + downstream-binding oligonucleotide (DNA, duplex, 3'-amino-2',3'-dideoxynucleoside at primer 3' end) CTGGATTTCCTCAGTATCGTGCG/CGCACGA/ACTGAGGAAATCCA; experiment: as above; conditions: 400 mM NaCl, 80 mM MgCl2; 200 mM HEPES, pH 8.9, 20°C; competes with 7.2 mM TMP-OAt; calculated from Kinh
[26] = tested on: template 8cac:primer, no downstream-binding oligonucleotide (DNA, duplex, 3'-amino-2',3'-dideoxynucleoside at primer 3' end) CTGGATTTCCTCAGCACCGTGCG/CGCACGG; experiment: as above; conditions: 400 mM NaCl, 80 mM MgCl2; 200 mM HEPES, pH 8.9, 10°C; competes with 7.2 mM TMP-OAt; calculated from Kinh
[27] = tested on: hairpin 2a (DNA, hairpin, hexaethylene glycol (HEG) loop linker between 4 and 5) ATGCGCA; experiment: 1H NMR titration; conditions: 400 mM NaCl, 80 mM MgCl2; 200 mM phosphate in D2O, pH 8.9, 20°C, 0.5 mM hairpin
[28] = tested on: hairpin 4a (DNA, hairpin, hexaethylene glycol (HEG) loop linker between 4 and 5) ACAGCTG; experiment: 1H NMR titration; conditions: 400 mM NaCl, 80 mM MgCl2; 200 mM phosphate in D2O, pH 8.9, 20°C, 0.5 mM hairpin
[29] = tested on: template 8aaa:primer + downstream-binding oligonucleotide (DNA, duplex, 3'-amino-2',3'-dideoxynucleoside at primer 3' end) CTGGATTTCCTCAGAAACGTGCG/CGCACGT/TCTGAGGAAATCCA; experiment: inhibition of enzyme-free primer extension (MALDI-ToF kinetics); conditions: 400 mM NaCl, 80 mM MgCl2; 200 mM HEPES, pH 8.9, 20°C; competes with 7.2 mM TMP-OAt; calculated from Kinh
[30] = tested on: hairpin 3a (DNA, hairpin, hexaethylene glycol (HEG) loop linker between 6 and 7) CTATGCGCA; experiment: 1H NMR titration; conditions: 400 mM NaCl, 80 mM MgCl2; 200 mM phosphate in D2O, pH 8.9, 20°C, 0.5 mM hairpin
[31] = tested on: template 8gag:primer + downstream-binding oligonucleotide (DNA, duplex, 3'-amino-2',3'-dideoxynucleoside at primer 3' end) CTGGATTTCCTCAGGAGCGTGCG/CGCACGC/CCTGAGGAAATCCA; experiment: inhibition of enzyme-free primer extension (MALDI-ToF kinetics); conditions: 400 mM NaCl, 80 mM MgCl2; 200 mM HEPES, pH 8.9, 20°C; competes with 7.2 mM TMP-OAt; calculated from Kinh
[32] = tested on: template 8tat:primer, no downstream-binding oligonucleotide (DNA, duplex, 3'-amino-2',3'-dideoxynucleoside at primer 3' end) CTGGATTTCCTCAGTATCGTGCG/CGCACGA; experiment: as above; conditions: 400 mM NaCl, 80 mM MgCl2; 200 mM HEPES, pH 8.9, 20°C; competes with 7.2 mM TMP-OAt; calculated from Kinh

## Nc1ncnc2c1ncn2[C@H]1C[C@H](O)[C@@H](COP(=O)(O)O)O1
[1]
  Kd: 17 mM
[2]
  Kd: 7 mM
[3]
  Kd: 7 mM
[4]
  Kd: 5 mM
[5]
  Kd: 38 mM
[6]
  Kd: 5 mM
[7]
  Kd: 5 mM

## Nc1ccn([C@H]2C[C@H](O)[C@@H](COP(=O)(O)O)O2)c(=O)n1
[8]
  Kd: 5 mM
[9]
  Kd: 6 mM
[10]
  Kd: 18 mM
[11]
  Kd: 15 mM
[12]
  Kd: 19 mM
[5]; no saturation up to 1 M dCMP
  Kd: > ≥2000 mM
[13]
  Kd: 40 mM
[14]
  Kd: 30 mM

## Nc1nc2c(ncn2[C@H]2C[C@H](O)[C@@H](COP(=O)(O)O)O2)c(=O)[nH]1
[15]
  Kd: 5 mM
[16]
  Kd: 2 mM
[17]
  Kd: 10 mM
[18]
  Kd: 7 mM
[19]
  Kd: 16 mM
[20]
  Kd: 9.9 ± 0.9 mM
[21]
  Kd: 15 mM
[5]
  Kd: 100 mM
[22]
  Kd: 5 mM

## Nc1nc2c(ncn2[C@@H]2O[C@H](COP(=O)(O)O)[C@@H](O)[C@H]2O)c(=O)[nH]1
[23]
  Kd: 14 mM

## Cc1cn([C@H]2C[C@H](O)[C@@H](COP(=O)(O)O)O2)c(=O)[nH]c1=O
[24]
  Kd: 113 mM
[25]
  Kd: 59 mM
[26]
  Kd: 144 mM
[27]
  Kd: 261 ± 47 mM
[28]
  Kd: 241 ± 12 mM
[29]
  Kd: 77 mM
[30]
  Kd: 284 ± 44 mM
[31]
  Kd: 83 mM
[32]
  Kd: 200 mM
